Patent US7678918B2, “Intermediates for imidazonaphthyridines” (3M Innovative Properties Company, priority 1997, dated 2010)

Key:
TNF = experiment: Cytokine Induction in Human Cells: tumor necrosis factor (TNF) secreted by PBMCs, ELISA; assay type: cell-based; settings: 18 to 24 hours; note: call rule not given here
Procedure, shortened: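 Human donor PBMCs at 1.5-2×10^6 cells/mL in RPMI with 10% FBS were exposed to compound, generally at 0.1 to 100 μM (≤1% DMSO final), for 18 to 24 h at 37 °C. Secreted TNF in supernatant was measured by ELISA and reported as pg/mL.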

IFN = experiment: Cytokine Induction in Human Cells: interferon (IFN) secreted by PBMCs, A549/encephalomyocarditis bioassay; assay type: cell-based; settings: 18 to 24 hours; note: call rule not given here
Procedure, shortened: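 Human PBMCs from healthy donors at 1.5-2×10^6 cells/mL in RPMI with 10% FBS, exposed to compounds (typically 0.1 to 100 μM, ≤1% DMSO) for 18 to 24 h at 37° C. Secreted IFN measured by A549/encephalomyocarditis virus cytopathic-effect bioassay, in alpha reference units/mL against NIH human leukocyte IFN standard.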

SMILES	melting point	TNF induction (TNF; Dose Concentration 0.1 μM)	TNF induction (TNF; Dose Concentration 1.0 μM)	TNF induction (TNF; Dose Concentration 10.0 μM)	TNF induction (TNF; Dose Concentration 100.0 μM)	IFN induction (IFN; Dose Concentration 0.1 μM)	IFN induction (IFN; Dose Concentration 1.0 μM)	IFN induction (IFN; Dose Concentration 10.0 μM)	IFN induction (IFN; Dose Concentration 100.0 μM)
CCCCc1nc2c(N)nc3cccnc3c2n1CCCCN [Example 46, 4-(4-Amino-2-butyl-1H-imidazo[4,5-c][1,5]naphthyridin-1-yl)butaneamine]	212 to 213 °C	+	+	+	+	+	+	+	
CCCCc1nc2c(N)nc3cccnc3c2n1CCCCNC(=O)CSc1ncccn1 [Example 109, N^1-[4-(4-Amino-2-butyl-1H-imidazo[4,5-c][1,5]naphthyridin-1-yl)butyl]-2-(2-pyrimidinylsulfanyl)acetamide]	156 to 160 °C (dec.)	−	±	+	+	+	+	+	+
CCCCc1nc2c(N)nc3cccnc3c2n1CCN [Example 91, 2-(4-Amino-2-butyl-1H-imidazo[4,5-c][1,5]naphthyridin-1-yl)ethaneamine]	175 to 176 °C	+	+	+	+	+	+	+	+
CCCCc1nc2c(N)nc3cccnc3c2n1CCCCNC(=O)Cn1cc(C)c(O)nc1=O [Example 108, N^1-[4-(4-Amino-2-butyl-1H-imidazo[4,5-c][1,5]naphthyridin-1-yl)butyl]-2-(4-hydroxy-5-methyl-2-oxo-1,2-dihydro-1-pyrimidinyl)acetamide]	242 to 244 °C	±	−	+	+	+	+	+	+
CCCCc1nc2c(N)nc3cccnc3c2n1CCCCNC(=O)c1ccc(C(OCCN(C)C)c2ccccc2)cc1 (stereo not shown) [Example 112, N^1-[4-(4-Amino-2-butyl-1H-imidazo[4,5-c][1,5]naphthyridin-1-yl)butyl]-4-{[2-(dimethylamino)ethoxy](phenyl)methyl}benzamide]	105 to 108 °C	+	+	−	−	+	+	+	±
CCCCc1nc2c(N)nc3cccnc3c2n1CCCCNC(=O)CSc1ccncc1 [Example 110, N^1-[4-(4-Amino-2-butyl-1H-imidazo[4,5-c][1,5]naphthyridin-1-yl)butyl]-2-(4-pyridylsulfanyl)acetamide]	127.5 to 129 °C	−	+	+	+	+	+	+	+
CCOCc1nc2c(N)nc3cccnc3c2n1Cc1ccccc1 [Example 70, 2-Ethoxymethyl-1-phenylmethyl-1H-imidazo[4,5-c][1,5]naphthyridin-4-amine]	173 to 174 °C	−	+	+	−	+	+	+	−

The next lines start with results.

melting point	SMILES	TNF induction (TNF; Dose Concentration 0.1 μM)	TNF induction (TNF; Dose Concentration 1.0 μM)	TNF induction (TNF; Dose Concentration 10.0 μM)	TNF induction (TNF; Dose Concentration 100.0 μM)	IFN induction (IFN; Dose Concentration 0.1 μM)	IFN induction (IFN; Dose Concentration 1.0 μM)	IFN induction (IFN; Dose Concentration 10.0 μM)	IFN induction (IFN; Dose Concentration 100.0 μM)
258 to 260 °C	CCCCc1nc2c(N)nc3cccnc3c2n1CCNC(=O)c1cccc(O)n1 [Example 99, N-[2-(4-Amino-2-butyl-1H-imidazo[4,5-c][1,5]naphthyridin-1-yl)ethyl]-6-hydroxy-2-pyridinecarboxamide]	−	−	+	+	−	−	+	+
153 to 154 °C	CCCCc1nc2c(N)nc3cccnc3c2n1CCNC(=O)C1CCC(=O)O1 (stereo not shown) [Example 97, N-[2-(4-Amino-2-butyl-1H-imidazo[4,5-c][1,5]naphthyridin-1-yl)ethyl]-5-oxotetrahydro-2-furancarboxamide]	−	−	+	+	−	−	+	+
228 to 230 °C	CCCCc1nc2c(N)nc3cccnc3c2n1CCNC(C)=O [Example 92, N^1-[2-(4-Amino-2-butyl-1H-imidazo[4,5-c][1,5]naphthyridin-1-yl)ethyl]acetamide]	−	+	+	+	±	+	+	+
184 to 185 °C	CCCCc1nc2c(N)nc3cccnc3c2n1CCNC(=O)C(CC(C)C)NC(=O)OC(C)(C)C (stereo not shown) [Example 101, 1,1-Dimethylethyl N-[1-({[2-(4-Amino-2-butyl-1H-imidazo[4,5-c][1,5]naphthyridin-1-yl)ethyl]amino}carbonyl)-3-methylbutyl]carbamate]	−	−		+	−	−	+	+
174 to 175 °C	CCCCc1nc2c(N)nc3cccnc3c2n1CCCOC(C)C [Example 75, 2-Butyl-1-(3-isopropoxypropyl)-1H-imidazo[4,5-c][1,5]naphthyridine-4-amine]	−	−	+	−	−	+	+	+
248 to 250 °C	CCCCc1nc2c(N)nc3cccnc3c2n1CCNC(=O)c1cc(C(C)(C)C)c(O)c(C(C)(C)C)c1 [Example 95, N^1-[2-(4-amino-2-butyl-1H-imidazo[4,5-c][1,5]naphthyridin-1-yl)ethyl]-3,5-di-(1,1-dimethylethyl)-4-hydroxybenzamide]	−	−	+	+	±	+	+	+
198 to 200 °C	C/C=C/C(=O)NCCn1c(CCCC)nc2c(N)nc3cccnc3c21 [Example 93, N^1-[2-(4-Amino-2-butyl-1H-imidazo[4,5-c][1,5]naphthyridin-1-yl)ethyl]-(E)-2-butenamide]	−	+	+	+	−	+	+	+
